In ChEMBL document CHEMBL6109143, “Adamantane-Quinoxalone Hybrids: Precision Chemotypes and Their Molecular Mechanisms in Acute Myeloid Leukemia” (J Med Chem, 2025):
Several values for one entry are separate records, joined by “and”; a condition that tells them apart may be missing. Equal entries are not always repeated.

Tests used:
Kasumi 1 [1] = assay: Cytotoxicity against human Kasumi 1 cells assessed as reduction in cell viability at 50 uM incubated for 24 hrs by MTT assay relative to control; assay type: functional
Kasumi 1 [2] = assay: Cytotoxicity against human Kasumi 1 cells harboring chromosomal translocation(8;21) assessed as reduction in cell viability incubated for 24 hrs by MTT assay; assay type: functional, cell-based; details: Kasumi 1, 24 h
THP-1 = assay: Cytotoxicity against human THP-1 cells harboring chromosomal translocation(9;11) assessed as reduction in cell viability incubated for 24 hrs by MTT assay; assay type: functional, cell-based; details: THP-1, 24 h

C=CCCCCN1C(=O)C(C23CC4CC(CC(C4)C2)C3)Nc2ccccc21 (centres undefined)
Activity (Kasumi 1 [1]): >30%

CCCCCCN1C(=O)C(C23CC4CC(CC(C4)C2)C3)Nc2ccccc21 (centres undefined)
Activity (Kasumi 1 [1]): >30%

CC(C)CCCC(C)CCN1C(=O)C(C23CC4CC(CC(C4)C2)C3)Nc2ccccc21 (centres undefined)
Activity (Kasumi 1 [1]): >30%

CCCCCCCCCCCCN1C(=O)C(C23CC4CC(CC(C4)C2)C3)Nc2ccccc21 (centres undefined)
Activity (Kasumi 1 [1]): >30%

O=C1C(C23CC4CC(CC(C4)C2)C3)Nc2cc3ccccc3cc2N1Cc1ccccc1 (centres undefined)
Activity (Kasumi 1 [1]): >30%

CC(C)CCN1C(=O)C(C23CC4CC(CC(C4)C2)C3)Nc2ccccc21 (centres undefined)
Activity (Kasumi 1 [1]): >30%

O=C1C(C23CC4CC(CC(C4)C2)C3)Nc2ccccc2N1Cc1ccc(F)cc1 (centres undefined)
Activity (Kasumi 1 [1]): >30%

O=C1C(C23CC4CC(CC(C4)C2)C3)Nc2ccccc2N1Cc1ccccc1 (centres undefined)
Activity (Kasumi 1 [1]): >30%

O=C1C(C23CC4CC(CC(C4)C2)C3)Nc2ccccc2N1c1ccc(-c2ccccc2)cc1 (centres undefined)
Activity (Kasumi 1 [1]): >30%

O=C1C(C23CC4CC(CC(C4)C2)C3)Nc2ccccc2N1CC1CC1 (centres undefined)
IC50 (Kasumi 1 [2]): 47 µM
IC50 (THP-1): > 50 µM
Activity (Kasumi 1 [1]; 24 h, 50 µM): <30% and >30%

O=C1C(C23CC4CC(CC(C4)C2)C3)Nc2ccccc2N1Cc1cccc(-c2ccccc2)c1 (centres undefined)
Activity (Kasumi 1 [1]): >30%

O=C1C(C23CC4CC(CC(C4)C2)C3)Nc2ccccc2N1Cc1ccc(Br)cc1 (centres undefined)
Activity (Kasumi 1 [1]): >30%
